Columns and labels:
[1] = biological target: human TASK-1 (Homo sapiens (Human), UniProt O14649); assay: Inhibition of recombinant TASK-1 in stably transfected CHO cells (voltage-sensitive dye, KCl depolarization); assay type: cell-based; conditions: depolarization by 40 mM potassium chloride
Experimental: (§1) B-2. Inhibition of Recombinant TASK-1 and TASK-3 In Vitro
(§2) The investigations on the inhibition of the recombinant TASK-1 and TASK-3 channels were conducted using stably transfected CHO cells. The compounds according to the invention were tested in this case by application of 40 mM potassium chloride in the presence of a voltage-sensitive dye according to the method described in detail in the following references [Whiteaker et al., Validation of FLIPR membrane potential dye for high-throughput screening of potassium channel modulators, J. Biomol. Screen. 6 (5), 305-312 (2001); Molecular Devices FLIPR Application Note: Measuring membrane potential using the FLIPR® membrane potential assay kit on Fluorometric Imaging Plate Reader (FLIPR®) systems, http://www.moleculardevices.com/reagents-supplies/assay-kits/ion-channels/flipr-membrane-potential-assay-kits]. The activity of the test substances was determined as their ability to inhibit a depolarization induced in the recombinant cells by 40 mM potassium chloride. The concentration which can block half of this depolarization is referred to as IC50.

[2] = biological target: human TASK-3 (Homo sapiens (Human), UniProt Q9NPC2); assay: Inhibition of recombinant TASK-3 in stably transfected CHO cells (voltage-sensitive dye, KCl depolarization); assay type: cell-based; conditions: depolarization by 40 mM potassium chloride
Experimental: as §1, §2

Sequence of human TASK-3 (Q9NPC2 whole entry): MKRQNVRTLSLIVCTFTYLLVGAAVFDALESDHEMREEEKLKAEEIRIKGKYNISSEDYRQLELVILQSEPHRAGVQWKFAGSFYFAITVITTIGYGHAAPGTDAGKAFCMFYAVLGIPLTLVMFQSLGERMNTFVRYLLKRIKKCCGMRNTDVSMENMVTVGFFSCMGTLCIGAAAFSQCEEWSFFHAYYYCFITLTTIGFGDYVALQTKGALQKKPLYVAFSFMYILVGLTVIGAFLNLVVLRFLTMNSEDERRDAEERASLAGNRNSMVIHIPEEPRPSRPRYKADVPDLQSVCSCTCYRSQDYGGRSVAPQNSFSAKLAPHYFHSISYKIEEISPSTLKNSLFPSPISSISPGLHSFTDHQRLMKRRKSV
Sequence of human TASK-1 (O14649 whole entry): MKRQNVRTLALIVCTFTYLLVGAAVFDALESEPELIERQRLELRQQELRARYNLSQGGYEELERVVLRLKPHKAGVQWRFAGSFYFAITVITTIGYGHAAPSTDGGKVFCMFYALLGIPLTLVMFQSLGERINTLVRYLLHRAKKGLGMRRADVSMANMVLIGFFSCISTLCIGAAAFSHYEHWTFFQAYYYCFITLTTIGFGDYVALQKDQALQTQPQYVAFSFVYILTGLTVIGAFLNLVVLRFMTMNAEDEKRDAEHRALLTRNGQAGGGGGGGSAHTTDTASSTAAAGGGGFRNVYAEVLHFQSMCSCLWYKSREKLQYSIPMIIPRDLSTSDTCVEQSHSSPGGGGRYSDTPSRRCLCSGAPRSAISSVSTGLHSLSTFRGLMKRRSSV

| SMILES | IC50 [1] | IC50 [2] |
| --- | --- | --- |
| COc1nc(C(F)(F)F)c(C(=O)N2C3CCC2CN(Cc2c(-c4ccc(Cl)cc4)nc4ncccn24)C3)s1 [Example 57] | 6.4 µM | 0.057 µM |
| CCc1cccc(C)c1NC(=O)N1C2CCC1CN(Cc1c(-c3ccc(Cl)cc3)nc3ncccn13)C2 [Example 98, 3-{[2-(4-chlorophenyl)imidazo[1,2-a]pyrimidin-3-yl]methyl}-N-(2-ethyl-6-methylphenyl)-3,8-diazabicyclo[3.2.1]octane-8-carboxamide] | 9 µM | 0.16 µM |
| COc1ccc(F)c(C(=O)N2CC3CCC2CN3Cc2c(-c3ccc(Cl)cc3)nc3ncccn23)n1 (single isomer, unassigned) [Example 24, (5-{[2-(4-Chlorophenyl)imidazo[1,2-a]pyrimidin-3-yl]methyl}-2,5-diazabicyclo[2.2.2]oct-2-yl)(3-fluoro-6-methoxypyridin-2-yl)methanone] | 0.41 µM | 0.102 µM |
| CC(C)c1ccc(-c2nc3ncccn3c2CN2CC3CCC2CN3C(=O)c2ncoc2C2CC2)cc1 (stereo not drawn) [Example 70] | 1.9 µM | 0.02 µM |
| O=C(c1ncoc1C1CC1)N1C2COCC1CN(Cc1c(-c3ccc(Cl)cc3)nc3ncccn13)C2 [Example 46] | 7.6 µM | 0.14 µM |
| O=C(c1nc(C(F)(F)F)cs1)N1C2CCC1CN(Cc1c(-c3ccc(Cl)cc3)nc3ncccn13)C2 [Example 60] | 0.67 µM | 0.43 µM |
| CCc1ccccc1NC(=O)N1C2CCC1CN(Cc1c(-c3ccc(Cl)cc3)nc3ncccn13)C2 [Example 95, 3-{[2-(4-chlorophenyl)imidazo[1,2-a]pyrimidin-3-yl]methyl}-N-(2-ethylphenyl)-3,8-diazabicyclo[3.2.1]octane-8-carboxamide] | 3 µM | 0.041 µM |
| O=C(Nc1ccccc1F)N1C2CCC1CN(Cc1c(-c3ccc(Cl)cc3)nc3ncccn13)C2 [Example 93, 3-{[2-(4-chlorophenyl)imidazo[1,2-a]pyrimidin-3-yl]methyl}-N-(2-fluorophenyl)-3,8-diazabicyclo[3.2.1]octane-8-carboxamide] | 12 µM | 0.26 µM |
| CC(C)CNC(=O)N1C2CCC1CN(Cc1c(-c3ccc(Cl)cc3)nc3ncccn13)C2 [Example 101, 3-{[2-(4-Chlorophenyl)imidazo[1,2-a]pyrimidin-3-yl]methyl}-N-isobutyl-3,8-diazabicyclo[3.2.1]octane-8-carboxamide] | 19 µM | 0.51 µM |
| COc1cccc(C(=O)N2C3COCC2CN(Cc2c(-c4ccc(Cl)cc4)nc4ncccn24)C3)c1 [Example 31] | 7.1 µM | 0.14 µM |
| O=C(c1ccccc1F)N1CC2CCC1CN2Cc1c(-c2ccc(Cl)cc2)nc2ncccn12 (stereo not drawn) [Example 42] | 1 µM | 0.34 µM |
| COc1ccc(Cl)c(C(=O)N2CC3CCC2CN3Cc2c(-c3ccc(Cl)cc3)nc3ncccn23)n1 (single isomer, unassigned) [Example 23, (3-Chloro-6-methoxypyridin-2-yl)(5-{[2-(4-chlorophenyl)imidazo[1,2-a]pyrimidin-3-yl]methyl}-2,5-diazabicyclo[2.2.2]oct-2-yl)methanone] | 1.6 µM | 0.1 µM |
| CCN(CC)C(=O)N1C2CCC1CN(Cc1c(-c3ccc(Cl)cc3)nc3ncccn13)C2 [Example 109, 3-{[2-(4-chlorophenyl)imidazo[1,2-a]pyrimidin-3-yl]methyl}-N,N-diethyl-3,8-diazabicyclo[3.2.1]octane-8-carboxamide] | 0.024 µM | 0.0015 µM |
| CC(C)(C)OC(=O)N1C2CCC1CN(Cc1c(-c3ccc(Br)cc3)nc3ncccn13)C2 [Example 12] | 0.22 µM | 0.013 µM |
| CN(C)C(=O)N1C2CCC1CN(Cc1c(-c3ccc(Cl)cc3)nc3ncccn13)C2 [Example 119, 3-{[2-(4-chlorophenyl)imidazo[1,2-a]pyrimidin-3-yl]methyl}-N,N-dimethyl-3,8-diazabicyclo[3.2.1]octane-8-carboxamide] | 5.3 µM | 0.21 µM |
| O=C(N1CCCC1)N1C2CCC1CN(Cc1c(-c3ccc(Cl)cc3)nc3ncccn13)C2 [Example 113, (3-{[2-(4-chlorophenyl)imidazo[1,2-a]pyrimidin-3-yl]methyl}-3,8-diazabicyclo[3.2.1]oct-8-yl)(pyrrolidin-1-yl)methanone] | 1.1 µM | 0.062 µM |
| COc1ccc(F)c(C(=O)N2C3CCC2CN(Cc2c(-c4ccc(Cl)cc4)nc4ncccn24)C3)n1 [Example 22, (3-{[2-(4-Chlorophenyl)imidazo[1,2-a]pyrimidin-3-yl]methyl}-3,8-diazabicyclo[3.2.1]oct-8-yl)(3-fluoro-6-methoxypyridin-2-yl)methanone] | 0.34 µM | 0.0052 µM |

| SMILES | IC50 [1] | IC50 [2] |
| --- | --- | --- |
| O=C(c1cscn1)N1C2CCC1CN(Cc1c(-c3ccc(Cl)cc3)nc3ncccn13)C2 [Example 61] | 3 µM | 0.64 µM |
| COc1ccc(Cl)c(C(=O)N2CC3CCC2CN3Cc2c(-c3ccc(C(C)C)cc3)nc3ncccn23)n1 (stereo not drawn) [Example 69] | 2.8 µM | 0.022 µM |
| COc1ccc(F)c(C(=O)N2C3CCC2CN(Cc2c(-c4ccc(C5CC5)cc4)nc4ncccn24)C3)n1 [Example 135, (3-{[2-(4-cyclopropylphenyl)imidazo[1,2a]pyrimidin-3-yl]methyl}-3,8-diazabicyclo[3.2.1]octan-8-yl)(3-fluoro-6methoxypyridin-2-yl)methanone] | 0.42 µM | 0.034 µM |
| O=C(OC1CCCCC1)N1C2CCC1CN(Cc1c(-c3ccc(Cl)cc3)nc3ncccn13)C2 [Example 128, cyclohexyl 3-{[2-(4-chlorophenyl)imidazo[1,2-a]pyrimidin-3-yl]methyl}-3,8-diazabicyclo[3.2.1]octane-8-carboxylate] | 2 µM | 0.11 µM |
| COc1cccc(C(=O)N2C3CCC2CN(Cc2c(-c4ccc(C5CC5)cc4)nc4ncccn24)C3)n1 [Example 137, (3-{[2-(4-cyclopropylphenyl)imidazo[1,2-a]pyrimidin-3-yl]methyl}-3,8-diazabicyclo[3.2.1]octan-8-yl)(6-methoxypyridin-2-yl)methanone] | 1.1 µM | 0.18 µM |
| CC(C)N(C)C(=O)N1C2CCC1CN(Cc1c(-c3ccc(Cl)cc3)nc3ncccn13)C2 [Example 115, 3-{[2-(4-chlorophenyl)imidazo[1,2-a]pyrimidin-3-yl]methyl}-N-isopropyl-N-methyl-3,8-diazabicyclo[3.2.1]octane-8-carboxamide] | 7.4 µM | 0.33 µM |
| Cc1nc(C(=O)N2C3CCC2CN(Cc2c(-c4ccc(Cl)cc4)nc4ncccn24)C3)c(C)o1 [Example 56] | 5.6 µM | 0.054 µM |
| CC(C)N(C(=O)N1C2CCC1CN(Cc1c(-c3ccc(Cl)cc3)nc3ncccn13)C2)c1ccc(Cl)cc1 [Example 118, N-(4-chlorophenyl)-3-{[2-(4-chlorophenyl)imidazo[1,2-a]pyrimidin-3-yl]methyl}-N-isopropyl-3,8-diazabicyclo[3.2.1]octane-8-carboxamide] | 19 µM | 0.22 µM |
| CC(C)(C)OC(=O)N1C2CCC1CN(Cc1c(-c3ccc(Cl)cc3)nc3ncccn13)C2 [Example 6, tert-Butyl 3-{[2-(4-chlorophenyl)imidazo[1,2-a]pyrimidin-3-yl]methyl}-3,8-diazabicyclo[3.2.1]octane-8-carboxylate] | 1.4 µM | 0.041 µM |
| COc1ccc(F)c(C(=O)N2CC3CCC2CN3Cc2c(-c3ccc(C(C)C)cc3)nc3ncccn23)n1 (stereo not drawn) [Example 71] | 14 µM | 0.11 µM |
| O=C(C1CCCC1)N1C2CCC1CN(Cc1c(-c3ccc(Br)cc3)nc3ncccn13)C2 [Example 84] | 0.093 µM | 0.0046 µM |
| COc1cccc(C(=O)N2CC3CCC2CN3Cc2c(-c3ccc(Cl)cc3)nc3ncccn23)c1 (stereo not drawn) [Example 43] | 1 µM | 0.32 µM |
| CC(C)c1ccc(-c2nc3ncccn3c2CN2CC3CCC(C2)N3C(=O)OC(C)(C)C)cc1 [Example 130, tert-Butyl 3-{[2-(4-isopropylphenyl)imidazo[1,2-a]pyrimidin-3-yl]methyl}-3,8-diazabicyclo[3.2.1]octane-8-carboxylate] | 1.7 µM | 0.21 µM |
| COc1ccc(F)c(C(=O)N2C3COCC2CN(Cc2c(-c4ccc(Cl)cc4)nc4ncccn24)C3)n1 [Example 15, (7-{[2-(4-Chlorophenyl)imidazo[1,2-a]pyrimidin-3-yl]methyl}-3-oxa-7,9-diazabicyclo[3.3.1]non-9-yl)(3-fluoro-6-methoxypyridin-2-yl)methanone] | 1.1 µM | 0.019 µM |
| O=C(C1CCCC1)N1C2CCC1CN(Cc1c(-c3ccc(C4CC4)cc3)nc3ncccn13)C2 [Example 134, cyclopentyl(3-{[2-(4-cyclopropylphenyl)imidazo[1,2-a]pyrimidin-3-yl]methyl}-3,8-diazabicyclo[3.2.1]octan-8-yl)methanone] | 0.77 µM | 0.097 µM |
| COc1cccc(CN(C)C(=O)N2C3CCC2CN(Cc2c(-c4ccc(Cl)cc4)nc4ncccn24)C3)c1 [Example 121, 3-{[2-(4-chlorophenyl)imidazo[1,2-a]pyrimidin-3-yl]methyl}-N-(3-methoxybenzyl)-N-methyl-3,8-diazabicyclo[3.2.1]octane-8-carboxamide] | 12 µM | 0.12 µM |

Reference: patent publication US11098063B2, “Diazabicyclic substituted imidazopyrimidines and their use for the treatment of breathing disorders” (Bayer Aktiengesellschaft, priority 2017, dated 2021)
